From patent publication US20090048112A1, “Novel Herbicides” (SYNGENTA LIMITED, priority 2005, published 2009) come the findings set out here.

Holding throughout (type): in vivo
For test [1], the system named is Monocotyledonous and dicotyledonous test plants. Put plainly: Example B1: herbicidal action prior to emergence (pre-emergence), 500 g/ha. The following applies: 13 days after application, 0 = no damage, 100 = plants completely dead; for ALOMY herbicidal effect (visual assessment, percentage scale): Alopecurus myosuroides (slender foxtail); for AMARE herbicidal effect (visual assessment, percentage scale): Amaranthus retroflexus (redroot pigweed); for ECHCG herbicidal effect (visual assessment, percentage scale): Echinochloa crus-galli (barnyard grass); for STEME herbicidal effect (visual assessment, percentage scale): Stellaria media (chickweed). How it is done: (§1) Monocotyledonous and dicotyledonous test plants were sown in seed trays in standard compost. The trays were watered twice daily or as required. The chemicals were applied by track sprayer at the soil surface. The application was carried out with an aqueous suspension of the test substances, prepared as a formulation of 50% acetone in water with 0.5% Tween 20™ (CAS RN 9005-64-5), to achieve a field equivalent of 1000 l/ha. The application rate of the test substances was 500 g/ha. A visual assessment of the herbicidal effect was made at 13 days after application. The following percentage scale was used for assessment: 0, 5, 10, 20, 30, 40, 50, 60, 70, 80, 90, 95, 100 (where 0 is no damage to plants and 100 is plants are completely dead).

Test [2] concerns Alopecurus myosuroides (slender foxtail). Put plainly: Example B2: herbicidal action post emergence, 500 g/ha. The following applies: applied to the foliage, 13 days after application, 0 is no damage to plants, 100 is plants completely dead. How it is done:
as §1, with “standard compost and were grown for eight days.” for “standard compost.”, “sprayer to” for “sprayer at”, “the foliage.” for “the soil surface.”, “(where O” for “(where 0”

Test [3] has as its system Amaranthus retroflexus (redroot pigweed). The test is described as above. The settings on record: applied to the foliage, 13 days after application, 0 is no damage to plants, 100 is plants completely dead. The method, then:
as §1, with “standard compost and were grown for eight days.” for “standard compost.”, “sprayer to” for “sprayer at”, “the foliage.” for “the soil surface.”, “(where O” for “(where 0”

Test [4] has as its system Stellaria media (chickweed). The description is as above. The following applies: applied to the foliage, 13 days after application, 0 is no damage to plants, 100 is plants completely dead. The method, then:
as §1, with “standard compost and were grown for eight days.” for “standard compost.”, “sprayer to” for “sprayer at”, “the foliage.” for “the soil surface.”, “(where O” for “(where 0”

Test [5] has as its system Echinochloa crus-galli (barnyard grass). The test is described as above. The settings on record: applied to the foliage, 13 days after application, 0 is no damage to plants, 100 is plants completely dead. How it is done: as §1, with “standard compost and were grown for eight days.” for “standard compost.”, “sprayer to” for “sprayer at”, “the foliage.” for “the soil surface.”, “(where O” for “(where 0”

For test [6], the system named is Monocotyledonous and dicotyledonous test plants. The test is described as follows: Example B3: herbicidal action prior to emergence (pre-emergence), 96-cell seed trays, 1000 g/ha. On the set-up: key: 0 is no damage to plant; 5 is total damage to plant. The following applies: 9 days after application; for AGSTE herbicidal effect (visual assessment, scale 0-5): Agrostis tenius (Colonial bentgrass); for AMARE herbicidal effect (visual assessment, scale 0-5): Amaranthus retroflexus (redroot pigweed); for DIGSA herbicidal effect (visual assessment, scale 0-5): Digitaria sanguinalis (hairy finger-grass); for POATR herbicidal effect (visual assessment, scale 0-5): Poa trivialis (rough blue grass); for SETIT herbicidal effect (visual assessment, scale 0-5): Setaria italica (foxtail millet). How it is done: Monocotyledonous and dicotyledonous test plants were sown in sterilised standard soil in seed trays each with 96 cells. The seed trays were stored under controlled conditions in a climatic chamber for one day (cultivation at 23° C. during the day and 17° C. at night; 13 hours of light; 50-60% humidity). The chemicals were applied to the soil surface. The application was carried out with an aqueous suspension of the test substances, prepared as a formulation in water with 10% dimethyl sulfoxide (CAS RN 67-68-5), to achieve a field equivalent of 1000 l/ha. The application rate of the test substances was 1000 g/ha. The plants were grown on in the climatic chamber for 9 days (cultivation at 24° C. during the day and 19° C. at night; 13 hours of light; 50-60% humidity). A visual assessment of the herbicidal effect was made at 9 days after application. The following scale was used for assessment: 0, 1, 2, 3, 4 and 5 (where 0 is no damage to plant and 5 is total damage to plant).

Structures are written as SMILES.

`Cn1nc(C(F)(F)F)c(C[S+]([O-])c2ncc(Cl)s2)c1OC(F)F` (racemic) [1.057]: in test [1], the “ALOMY herbicidal effect (visual assessment, percentage scale)” value came out at 90%; the “AMARE herbicidal effect (visual assessment, percentage scale)” value is 95%; the “ECHCG herbicidal effect (visual assessment, percentage scale)” value is 95%; the “STEME herbicidal effect (visual assessment, percentage scale)” value worked out at 80%. In test [2], the “ALOMY, visual assessment of the herbicidal effect” value (“ALOMY, visual assessment” below) came out at 90%. Also, the “AMARE, visual assessment of the herbicidal effect” value (“AMARE, visual assessment” below) in test [3] came out at 100%. Moreover, the “STEME, visual assessment of the herbicidal effect” value (from here on “STEME, visual assessment”) in test [4] worked out at 90%. In addition, the “ECHCG, visual assessment of the herbicidal effect” value (“ECHCG, visual assessment” for short) in test [5] was 80%.
Turning to `Cn1nc(C(F)(F)F)c(CSc2ncc(Br)s2)c1OCC(F)(F)F` [Compound No. 1.001, 5-bromo-2-[1-methyl-5-(2,2,2-trifluoroethoxy)-3-trifluoromethyl-1H-pyrazol-4-ylmethylsulfanyl]-thiazole], in test [1], the “ALOMY herbicidal effect (visual assessment, percentage scale)” value was determined as 90%; the “AMARE herbicidal effect (visual assessment, percentage scale)” value was 90%; the “ECHCG herbicidal effect (visual assessment, percentage scale)” value is 95%; the “STEME herbicidal effect (visual assessment, percentage scale)” value amounted to 60%. Moreover, the “ALOMY, visual assessment” value in test [2] worked out at 80%. Moreover, the “AMARE, visual assessment” value in test [3] stood at 80%. Also, in test [4], the “STEME, visual assessment” value came to 80%. Moreover, the “ECHCG, visual assessment” value in test [5] came out at 60%.
Turning to `Cn1nc(C(F)(F)F)c(C(F)(F)S(=O)(=O)c2ncc(Cl)s2)c1OCC(F)(F)F` [Compound No. 1.037], in test [1], the “ALOMY herbicidal effect (visual assessment, percentage scale)” value is 60%; the “AMARE herbicidal effect (visual assessment, percentage scale)” value is given as 100%; the “ECHCG herbicidal effect (visual assessment, percentage scale)” value was 95%; the “STEME herbicidal effect (visual assessment, percentage scale)” value turned out to be 95%. In test [2], the “ALOMY, visual assessment” value came to 90%. Moreover, the “AMARE, visual assessment” value in test [3] is on record as 95%. For the same compound, the “STEME, visual assessment” value in test [4] is 70%. Moreover, in test [5], the “ECHCG, visual assessment” value is 20%.
Turning to `Cn1nc(C(F)(F)F)c(CSc2ncc(Br)s2)c1Cl` [Compound No. 1.004, 5-bromo-2-(5-chloro-1-methyl-3-trifluoromethyl-1H-pyrazol-4-ylmethylsulfanyl)-thiazole], in test [1], the “ALOMY herbicidal effect (visual assessment, percentage scale)” value is recorded as 95%; the “AMARE herbicidal effect (visual assessment, percentage scale)” value turned out to be 95%; the “ECHCG herbicidal effect (visual assessment, percentage scale)” value came out at 95%; the “STEME herbicidal effect (visual assessment, percentage scale)” value was 60%. Moreover, in test [2], the “ALOMY, visual assessment” value is on record as 80%. Besides, the “AMARE, visual assessment” value in test [3] amounted to 70%. The “STEME, visual assessment” value in test [4] amounted to 60%. Moreover, the “ECHCG, visual assessment” value in test [5] is 90%.
Take `Cn1nc(OC(F)F)c(CS(=O)(=O)c2ncc(Cl)s2)c1C(F)(F)F` [Compound 1.055]: in test [6], the “AGSTE herbicidal effect (visual assessment, scale 0-5)” value (“AGSTE herbicidal effect” for short) was 4; the “AMARE herbicidal effect (visual assessment, scale 0-5)” value was 2; the “DIGSA herbicidal effect (visual assessment, scale 0-5)” value (from here on “DIGSA herbicidal effect”) was determined as 5; the “POATR herbicidal effect (visual assessment, scale 0-5)” value (from here on “POATR herbicidal effect”) is 5. Moreover, the “SETIT herbicidal effect (visual assessment, scale 0-5)” value (from here on “SETIT herbicidal effect”) in test [6] was determined as 5. For the same compound, in test [1], the “ALOMY herbicidal effect (visual assessment, percentage scale)” value turned out to be 95%; the “AMARE herbicidal effect (visual assessment, percentage scale)” value is given as 0%; the “ECHCG herbicidal effect (visual assessment, percentage scale)” value is reported as 100%; the “STEME herbicidal effect (visual assessment, percentage scale)” value stood at 0%.
Turning to `Cn1nc(C(F)(F)F)c(CSc2ncc([N+](=O)[O-])s2)c1OCC(F)(F)F` [Compound No. 1.061], in test [1], the “ALOMY herbicidal effect (visual assessment, percentage scale)” value is 80%; the “AMARE herbicidal effect (visual assessment, percentage scale)” value was 100%; the “ECHCG herbicidal effect (visual assessment, percentage scale)” value is 95%; the “STEME herbicidal effect (visual assessment, percentage scale)” value worked out at 95%. Besides, the “ALOMY, visual assessment” value in test [2] was 40%. Moreover, the “AMARE, visual assessment” value in test [3] amounted to 40%. For the same compound, the “STEME, visual assessment” value in test [4] is given as 40%. Further, the “ECHCG, visual assessment” value in test [5] stood at 80%.
As for `Cn1nc(C(F)(F)F)c(CS(=O)(=O)c2ncc(Br)s2)c1OCC(F)(F)F` [Compound No. 1.003, 5-bromo-2-[1-methyl-5-(2,2,2-trifluoroethoxy)-3-trifluoromethyl-1H-pyrazol-4-ylmethanesulfonyl]-thiazole], in test [1], the “ALOMY herbicidal effect (visual assessment, percentage scale)” value worked out at 95%; the “AMARE herbicidal effect (visual assessment, percentage scale)” value is 95%; the “ECHCG herbicidal effect (visual assessment, percentage scale)” value stood at 95%; the “STEME herbicidal effect (visual assessment, percentage scale)” value is reported as 70%. Besides, the “ALOMY, visual assessment” value in test [2] came out at 80%. The “STEME, visual assessment” value in test [4] is recorded as 10%. In addition, in test [5], the “ECHCG, visual assessment” value amounted to 90%.
Regarding `Cn1nc(C(F)(F)F)c(CSc2ncc(Cl)s2)c1OCCCF` [Compound No. 1.102], in test [6], the “AGSTE herbicidal effect” value is listed as 5; the “AMARE herbicidal effect (visual assessment, scale 0-5)” value came out at 2; the “DIGSA herbicidal effect” value is 4; the “POATR herbicidal effect” value is 0. Also, in test [6], the “SETIT herbicidal effect” value was found to be 2.
As for `Cn1nc(C(F)(F)F)c(CS(=O)(=O)c2ncc(Cl)s2)c1OCC(F)F` [Compound 1.117], in test [6], the “AGSTE herbicidal effect” value is recorded as 5; the “AMARE herbicidal effect (visual assessment, scale 0-5)” value is on record as 5; the “DIGSA herbicidal effect” value amounted to 5; the “POATR herbicidal effect” value was 5. The “SETIT herbicidal effect” value in test [6] is 5.
Take `Cc1cnc([S+]([O-])Cc2c(C(F)(F)F)nn(C)c2OCC(F)(F)F)s1` (racemic) [Compound 1.074]: in test [6], the “AGSTE herbicidal effect” value amounted to 5; the “AMARE herbicidal effect (visual assessment, scale 0-5)” value is listed as 3; the “DIGSA herbicidal effect” value is 5; the “POATR herbicidal effect” value was 5. Besides, in test [6], the “SETIT herbicidal effect” value worked out at 4. For the same compound, in test [1], the “ALOMY herbicidal effect (visual assessment, percentage scale)” value was 70%; the “AMARE herbicidal effect (visual assessment, percentage scale)” value is 95%; the “ECHCG herbicidal effect (visual assessment, percentage scale)” value worked out at 0%; the “STEME herbicidal effect (visual assessment, percentage scale)” value stood at 80%.
For the compound `Cn1nc(C(F)(F)F)c(C[S+]([O-])c2ncc(Cl)s2)c1OCC(F)F` (racemic) [Compound 1.116], in test [6], the “AGSTE herbicidal effect” value was 5; the “AMARE herbicidal effect (visual assessment, scale 0-5)” value worked out at 5; the “DIGSA herbicidal effect” value is on record as 5; the “POATR herbicidal effect” value is 5. In addition, in test [6], the “SETIT herbicidal effect” value is given as 5.
Consider `Cn1cc(CS(=O)(=O)c2ncc(Cl)s2)c(C(F)(F)F)n1` [Compound 1.107], for which, in test [6], the “AGSTE herbicidal effect” value is reported as 0; the “AMARE herbicidal effect (visual assessment, scale 0-5)” value worked out at 3; the “DIGSA herbicidal effect” value is 5; the “POATR herbicidal effect” value is 0. Moreover, in test [6], the “SETIT herbicidal effect” value is 3.
Consider `CCS(=O)(=O)c1c(CS(=O)(=O)c2ncc(Cl)s2)c(C(F)(F)F)nn1C` [Compound No. 1.081], for which, in test [6], the “AGSTE herbicidal effect” value is listed as 5; the “AMARE herbicidal effect (visual assessment, scale 0-5)” value came out at 5; the “DIGSA herbicidal effect” value is given as 0; the “POATR herbicidal effect” value was 0. Further, in test [6], the “SETIT herbicidal effect” value amounted to 4.
